Measured values from ChEMBL document CHEMBL1137017, “In vitro antiviral activity and cross-resistance profile of PL-100, a novel protease inhibitor of human immunodeficiency virus type 1” (Antimicrob Agents Chemother, 2007).
pIC50: −log10 of the molar value.

What was measured:
[1] = tested on: Human immunodeficiency virus 1; experiment: Resistance index, ratio of EC50 for HIV1 with protease 24I/33F/54V/82A/84V mutation to EC50 for wild type HIV1 NL4-3 in HEK293 cells after 48 hrs by replication-deffective luciferase reporter gene-based phenotypic assay; format: functional
[2] = tested on: Human immunodeficiency virus 1; experiment: Resistance index, ratio of EC50 for HIV1 with protease 30N/88D/90M mutation to EC50 for wild type HIV1 NL4-3 in HEK293 cells after 48 hrs by replication-deffective luciferase reporter gene-based phenotypic assay; format: functional
[3] = tested on: Human immunodeficiency virus 1; experiment: Resistance index, ratio of EC50 for HIV1 with protease 33F/54V/73S/82A/84V/90M mutation to EC50 for wild type HIV1 NL4-3 in HEK293 cells after 48 hrs by replication-deffective luciferase reporter gene-based phenotypic assay; format: functional
[4] = tested on: Human immunodeficiency virus 1; experiment: Resistance index, ratio of EC50 for HIV1 with protease 32I/46I/47V/50L mutation to EC50 for wild type HIV1 NL4-3 in HEK293 cells after 48 hrs by replication-deffective luciferase reporter gene-based phenotypic assay; format: functional
[5] = tested on: Human immunodeficiency virus 1; experiment: Resistance index, ratio of EC50 for HIV1 with protease 46L/50L/54V/82A mutation to EC50 for wild type HIV1 NL4-3 in HEK293 cells after 48 hrs by replication-deffective luciferase reporter gene-based phenotypic assay; format: functional
[6] = Cytotoxicity against human MT4 cells after 6 days by MTT assay; format: cell-based
[7] = tested on: Human immunodeficiency virus 1; experiment: Resistance index, ratio of EC50 for HIV1 with protease 33F/46L/54V/82A/84V/90M mutation to EC50 for wild type HIV1 NL4-3 in HEK293 cells after 48 hrs by replication-deffective luciferase reporter gene-based phenotypic assay; format: functional
[8] = tested on: Human immunodeficiency virus 1; experiment: Resistance index, ratio of EC50 for HIV1 with protease 33F/46I/53L/82A/84V mutation to EC50 for wild type HIV1 NL4-3 in HEK293 cells after 48 hrs by replication-deffective luciferase reporter gene-based phenotypic assay; format: functional
[9] = tested on: Human immunodeficiency virus 1; experiment: Resistance index, ratio of EC50 for HIV1 with protease 46I/50V mutation to EC50 for wild type HIV1 NL4-3 in HEK293 cells after 48 hrs by replication-deffective luciferase reporter gene-based phenotypic assay; format: functional
[10] = tested on: Human immunodeficiency virus 1; experiment: Resistance index, ratio of EC50 for HIV1 with protease 46L/48V/82A/84V/90M mutation to EC50 for wild type HIV1 NL4-3 in HEK293 cells after 48 hrs by replication-deffective luciferase reporter gene-based phenotypic assay; format: functional
[11] = tested on: Human immunodeficiency virus 1; experiment: Resistance index, ratio of EC50 for HIV1 with protease 46I/50V/90M mutation to EC50 for wild type HIV1 NL4-3 in HEK293 cells after 48 hrs by replication-deffective luciferase reporter gene-based phenotypic assay; format: functional
[12] = tested on: Human immunodeficiency virus 1; experiment: Resistance index, ratio of EC50 for HIV1 with protease 46I/82A/84V/90M mutation to EC50 for wild type HIV1 NL4-3 in HEK293 cells after 48 hrs by replication-deffective luciferase reporter gene-based phenotypic assay; format: functional
[13] = tested on: Human immunodeficiency virus 1; experiment: Resistance index, ratio of EC50 for HIV1 with protease 46I/88S mutation to EC50 for wild type HIV1 NL4-3 in HEK293 cells after 48 hrs by replication-deffective luciferase reporter gene-based phenotypic assay; format: functional
[14] = tested on: Human immunodeficiency virus 1; experiment: Resistance index, ratio of EC50 for HIV1 with protease 46I/54V/82A/84V mutation to EC50 for wild type HIV1 NL4-3 in HEK293 cells after 48 hrs by replication-deffective luciferase reporter gene-based phenotypic assay; format: functional
[15] = tested on: Human immunodeficiency virus 1; experiment: Resistance index, ratio of EC50 for HIV1 with protease 37S/41K/70E mutation to EC50 for wild type HIV1 NL4-3 in HEK293 cells after 48 hrs by replication-deffective luciferase reporter gene-based phenotypic assay; format: functional
[16] = tested on: Human immunodeficiency virus 1; experiment: Resistance index, ratio of EC50 for HIV1 with protease 84V/90M mutation to EC50 for wild type HIV1 NL4-3 in HEK293 cells after 48 hrs by replication-deffective luciferase reporter gene-based phenotypic assay; format: functional
[17] = tested on: Human immunodeficiency virus 1; experiment: Resistance index, ratio of EC50 for HIV1 with protease 33F/54L/88S/90M mutation to EC50 for wild type HIV1 NL4-3 in HEK293 cells after 48 hrs by replication-deffective luciferase reporter gene-based phenotypic assay; format: functional
[18] = tested on: Human immunodeficiency virus 1; experiment: Resistance index, ratio of EC50 for HIV1 with protease 46I/82T/84V mutation to EC50 for wild type HIV1 NL4-3 in HEK293 cells after 48 hrs by replication-deffective luciferase reporter gene-based phenotypic assay; format: functional
[19] = tested on: Human immunodeficiency virus 1; experiment: Resistance index, ratio of EC50 for HIV1 with protease 33F/54V/82T/84V/90M mutation to EC50 for wild type HIV1 NL4-3 in HEK293 cells after 48 hrs by replication-deffective luciferase reporter gene-based phenotypic assay; format: functional
[20] = tested on: Human immunodeficiency virus 1; experiment: Resistance index, ratio of EC50 for HIV1 with protease 33I/46I/84V/88D/90M mutation to EC50 for wild type HIV1 NL4-3 in HEK293 cells after 48 hrs by replication-deffective luciferase reporter gene-based phenotypic assay; format: functional
[21] = tested on: Human immunodeficiency virus 1; experiment: Resistance index, ratio of EC50 for HIV1 with protease 24I/33F/46I/54L/82A mutation to EC50 for wild type HIV1 NL4-3 in HEK293 cells after 48 hrs by replication-deffective luciferase reporter gene-based phenotypic assay; format: functional
[22] = tested on: Human immunodeficiency virus 1; experiment: Resistance index, ratio of EC50 for HIV1 with protease 46L/48V/82A/90M mutation to EC50 for wild type HIV1 NL4-3 in HEK293 cells after 48 hrs by replication-deffective luciferase reporter gene-based phenotypic assay; format: functional
[23] = tested on: Human immunodeficiency virus 1; experiment: Resistance index, ratio of EC50 for HIV1 with protease 33F/50V mutation to EC50 for wild type HIV1 NL4-3 in HEK293 cells after 48 hrs by replication-deffective luciferase reporter gene-based phenotypic assay; format: functional
[24] = tested on: Human immunodeficiency virus 1; experiment: Resistance index, ratio of EC50 for non-B type HIV1 with protease 32I/47A mutation to EC50 for wild type HIV1 NL4-3 in HEK293 cells after 48 hrs by replication-deffective luciferase reporter gene-based phenotypic assay; format: functional
[25] = tested on: Human immunodeficiency virus 1; experiment: Resistance index, ratio of EC50 for HIV1 with protease 33F/54V/82A/84V mutation to EC50 for wild type HIV1 NL4-3 in HEK293 cells after 48 hrs by replication-deffective luciferase reporter gene-based phenotypic assay; format: functional
[26] = tested on: Human immunodeficiency virus 1; experiment: Resistance index, ratio of EC50 for HIV1 with protease 54V/82A mutation to EC50 for wild type HIV1 NL4-3 in HEK293 cells after 48 hrs by replication-deffective luciferase reporter gene-based phenotypic assay; format: functional
[27] = target: Protease (Human immunodeficiency virus 1) (UniProt Q9YQ12); experiment: Inhibition of HIV1 3B protease-mediated gag polyprotein processing in H9 cells assessed as decrease in p24 level by Western blotting; format: cell-based
Chain of Protease (Human immunodeficiency virus 1) (Q9YQ12 as listed by the source): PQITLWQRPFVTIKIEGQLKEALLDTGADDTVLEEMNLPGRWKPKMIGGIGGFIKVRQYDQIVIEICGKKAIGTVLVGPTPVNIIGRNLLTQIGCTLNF

[28] = tested on: Human immunodeficiency virus 1; experiment: Resistance index, ratio of EC50 for SQV-resistant HIV1 4596 carrying L10R/M46I/L63P/[…]/L90M mutation to EC50 for wild type HIV1 NL4-3 in HEK293 cells after 48 hrs by replication-deffective luciferase reporter gene-based phenotypic assay; format: functional
[29] = Inhibition of pig pepsin; parameters: species or system Sus scrofa

Compound	Ratio EC50 [1]	Ratio EC50 [2]	Ratio EC50 [4]	Ratio EC50 [5]	CC50 at 144 h [6]	Ratio EC50 [8]	Ratio EC50 [9]	Ratio EC50 [10]	Ratio EC50 [11]	Ratio EC50 [12]	Ratio EC50 [13]	Ratio EC50 [14]	Ratio EC50 [15]	Ratio EC50 [17]	Ratio EC50 [19]	Ratio EC50 [20]	Ratio EC50 [22]	Ratio EC50 [24]	Ratio EC50 [25]	Ratio EC50 [26]	also measured
Cc1c(O)cccc1C(=O)N[C@@H](CSc1ccccc1)[C@H](O)CN1C[C@H]2CCCC[C@H]2C[C@H]1C(=O)NC(C)(C)C	31.4	42.1	3.5	11.8	8 µM	11.1	1.3	43.6	19.4	11.2	4.6	8.8	1.6	14.5	14.9	27.9	30.8	3.1	5.8	12.1	Ratio EC50 [3]: 172.1; Ratio EC50 [7]: 31.4; Ratio EC50 [16]: 12.1; Ratio EC50 [18]: 1.6; Ratio EC50 [21]: 8.1; Ratio EC50 [23]: 3.6
COC(=O)N[C@H](C(=O)N[C@@H](Cc1ccccc1)[C@@H](O)CN(Cc1ccc(-c2ccccn2)cc1)NC(=O)[C@@H](NC(=O)OC)C(C)(C)C)C(C)(C)C [ATAZANAVIR]			81.2	68.9	71 µM	18.3	0.4	91.6	1.2	3.8	3.1	5.8	1.4	18.9	14.1	38	35.4	1	5.5	3.9	
COC(=O)N[C@H](C(=O)NCCCC[C@@H](CO)N(CC(C)C)S(=O)(=O)c1ccc(N)cc1)C(c1ccccc1)c1ccccc1 [PPL-100]	4.2	1.4	1.1	3.2	37 µM	17.8	0.8	13.4	1.4	10.1	0.4	3.7	0.9	1.7	3.4	6.3	7.5	1.4	3.4	1.8	Ratio EC50 [3]: 37.2; Ratio EC50 [7]: 18.4; Activity [27]: Dose-dependent effect; Ratio EC50 [16]: 2.3; Ratio EC50 [18]: 1.2; Activity [28]: 1.2; Ratio EC50 [21]: 6.4; Ratio EC50 [23]: 2.7; pIC50 [29]: < 4.30
